Test results from US20070203079A1, “Methods of using small molecule compounds for neuroprotection” (priority 2005, published 2007).
Counter-ions that a name gives are not always drawn. Marks after values point to notes of the source that are not given here.

Assays:
[1] = tested on: Pdat-1::GFP+Pdat-1::α-synuclein+Pdat-1::torsinA worms; assay: α-synuclein toxicity assay, wt torsinA; assay type: in vivo, C. elegans
Excerpt: (§1) We have previously shown that torsinA can prevent dopamine (“DA”) neuron degeneration resulting from overexpression of α-synuclein in the DA neurons of C. elegans, while torsinA (“ΔE”) has a reduced neuroprotection (Cao et al., J Neurosci, 2005, 25(1): 3801-3812). Specifically, only 26.1±5.3% of the worms expressing Pdat-1::GFP+Pdat-1::α-synuclein maintained all 4 wildtype CEP DA neurons as 4 day adults while the percentages of the worms expressing Pdat-1::GFP+Pdat-1::α-synuclein+Pdat-1::torsinA and Pdat-1::GFP+Pdat-1::α-synuclein+Pdat-1:: torsinA (ΔE) are 57.3±1.6% and 42.2±7.3%, respectively (Cao et al., J Neurosci, 2005, 25(1): 3801-3812) (FIG. 8).
(§2) All molecules are coded by Prestwick Library number. TorsinA-dependent compounds identified from the aggregation assay have torsinA-specific effects and, therefore, are likely to function in the same manner in the α-synuclein toxicity assay. All three α-synuclein transgenic lines were exposed to the five torsinA-dependent compounds to determine their torsinA-specificity (FIG. 9). As expected, none of these compounds had any effect in Pdat-1::GFP+Pdat-1::α-synuclein when torsinA expression is absent.

[2] = tested on: transgenic worm line Pdat-1::CAT-2; assay: Neurodegeneration by overexpression of cat-2 (tyrosine hydroxylase); assay type: in vivo, C. elegans
Excerpt: Overexpression of cat-2, the worm homologue for tyrosine hydroxylase, results in increased intraneuronal dopamine production and a characteristic loss of dopaminergic neurons in 75% of transgenic worms as compared to wild type (Cao et al., J Neurosci, 25(1):3801-3812). Co-expression of worm or human torsin proteins reduces the loss of dopaminergic neurons to a slight degree although neuronal degeneration is still present. The purpose of these experiments was to determine the effect of small molecule compounds in the Prestwick library in another different C. elegans model of neurodegeneration.
Worms were cultured using the same methods described above. A transgenic worm line expressing Pdat-1::CAT-2 expresses a phenotype that results in visible neurodegeneration at all developmental stages in an integrated line, in which only approximately 55% of 7 day old animals maintained all four CEP neurons. […] Compound 166 is an example of one such compound.
To further examine the neuroprotective effect of meclofenamic acid and lidocaine, we used a transgenic line (Pdat-1::CAT-2) we previously described (Cao et al., J Neurosci, 2005, 25(1): 3801-3812). Overexpression of cat-2, the C. elegans homolog of the tyrosine hydroxylase (“TH”) gene, causes a high level of DA production and as a result, DA neuron degeneration is observed (Cao et al., J Neurosci, 2005, 25(1): 3801-3812). […] We also tested whether meclofenamic acid was able to suppress CAT-2-induced neurodegeneration. […] Therefore, meclofenamic acid can protect DA neurons from degeneration produced by overexpression of the dopamine precursor, tyrosine hydroxylase.

[3] = tested on: worms expressing Punc-54::Q82::GFP+Punc-54::torsinA (ΔE) with a mutant torsinA only; assay: Protein aggregate assay in worms with mutant torsinA only; assay type: in vivo, C. elegans
Experimental: C elegans nematodes were grown at 20° C. on NGM plates as described by Brenner (Brenner, Genetics, 1974, 77: 71-94). Several transgenic C. elegans lines were used for primary screens of the Prestwick small molecule library. A transgenic worm line expressing Punc-54::Q82-GFP; with both wild type (“wt”) (Punc=54: :torsinA) or mutant (Punc-54::torsinA(ΔE)). Torsin-A expresses a phenotype that results in visible protein aggregation under fluorescent microscope. Transgenic worms were plated on drug plates and progeny were studied for a return to soluble protein. […]
(§3) The screening assays used to identify the compounds use protein aggregation readouts to determine the specificities of molecular action. […]
(§4) The methods for the aggregate analysis assay are described in Caldwell et al. (Hum Mol Genetics, 2003, 12(3): 307-319). […] MetaMorph Software (Universal Imaging Inc.) was used for pseudocoloration of images, image overlay, and aggregate size quantitation. For each worm line analyzed, average aggregate size was determined by capturing images of all aggregates in the posterior region of 30 L3-staged animals (for Q82::GFP aggregates) or all aggregates in 30 adult animals/day (for Q19::GFP analyses) at 1000× magnification. […]

[4] = tested on: protein misfolding and aggregation in transgenic worms; assay: Preventative assay of protein aggregation (drug from hatching to L2 stage); assay type: in vivo, C. elegans; conditions: exposure from hatching to L2 stage; scored at L3 and young adult
Experimental: To see the preventative effects of the candidate drug compounds on protein misfolding and aggregation, five gravid adult worms were placed onto each drug plate and grown at 20° C. for approximately 3 days. 35-40 Fl worms at L2 stage were picked and transferred to a control plate with the same concentration of control solvent compared to the drug plate. Thirty worms at L3 stage were counted for aggregate number 8 hours later. Thirty young adults were analyzed 32 hours later.
To calculate the scaled effectiveness of special regimen of drugs on worms based on standardized decrease in protein aggregates. The following formula was used: (A−B)/(A−C)×100%, where
A=number of aggregates for worms growing on solvent control plates
B=number of aggregates for worms grown on the specific drug plate for the entire life of the worms
C=number of aggregates for worms that received pre-L2 exposure and were then removed to solvent control plates
If the regimen has no effect, the value would equal 0%. Conversely, if the regimen was as effective as raising the worms on the drug for their entire life, the value would equal 100%.

[5] = tested on: transgenic worms containing the transgene Pdat-1::GFP without any torsinA expression; assay: 6-OHDA dopaminergic neurodegeneration in worms without torsinA; assay type: in vivo, C. elegans; conditions: no torsinA expression
GFP::DAT-1 = assay: Pdat-1::GFP::DAT-1 expression within DA neurons; assay type: in vivo, C. elegans; conditions: for Neurons with cell body and dendritic/axonal GFP: water control 70%; for Neurons with cell body and dendritic/axonal GFP / Mean pixel intensity of cell bodies ± SEM (fluorescence intensity): sodium salt; for Mean pixel intensity of cell bodies ± SEM (fluorescence intensity): water control 1970 ± 80, compounds at 1.85, 1.49, 1.86 mM
[6] = tested on: Pdat-1::GFP+Pdat-1::α-synuclein+Pdat-1:: torsinA (ΔE) worms; assay: α-synuclein toxicity assay, mutant torsinA; assay type: in vivo, C. elegans
Excerpt: as §1, §2

[7] = tested on: worms containing Punc-54::Q82::GFP+Punc-54::torsinA+Punc54::torsinA (ΔE); assay: Screen for reduction of polyglutamine protein aggregates in worms with wt and mutant torsinA; assay type: in vivo, C. elegans; conditions: differentiated by Q82::GFP lines without torsinA, with wt torsinA or with mutant torsinA
Experimental: (§5) C elegans nematodes were grown at 20° C. on NGM plates as described by Brenner (Brenner, Genetics, 1974, 77: 71-94). Several transgenic C. elegans lines were used for primary screens of the Prestwick small molecule library. A transgenic worm line expressing Punc-54::Q82-GFP; with both wild type (“wt”) (Punc=54: :torsinA) or mutant (Punc-54::torsinA(ΔE)). Torsin-A expresses a phenotype that results in visible protein aggregation under fluorescent microscope. Transgenic worms were plated on drug plates and progeny were studied for a return to soluble protein.
(§6) Drugs were administered to C. elegans according to a standard procedure (Rand and Johnson, Methods Cell Biol, 1995, 48: 187-204), by mixing the solubilized drug with the agar medium on which the worms are grown. This mode of administration allows the continuous exposure of worms to the drug.
Each drug was first dissolved in an appropriate solvent, followed by adding the drug solution into pre-autoclaved media, with the volume of drug solution already taken into account. […] Each plate was seeded with 100 μl concentrated E. coli OP50 bacteria.
as §3, §4
(§7) To see the effect of the candidate compounds on suppressing protein misfolding and aggregation, five gravid adult worms were placed onto each drug plate and grown at 20° C. for approximately 3 days. Thirty Fl worms at L3 stage and young adult stage were counted for aggregate number.

[8] = tested on: worms expressing Punc-54::Q82::GFP+Punc-54::torsinA with wt torsinA only; assay: Protein aggregate assay in worms with wt torsinA only; assay type: in vivo, C. elegans
Experimental: as §5, §6
Each drug was first dissolved in an appropriate solvent, followed by adding the drug solution into pre-autoclaved media, with the volume of drug solution already taken into account. […]
as §3, §4, §7

[9] = 1 gram/kg dose, fasting normal individual; cited from earlier work
[10] = Pdat-1::GFP::DAT-1, listed as Meclofenamic acid sodium salt
[11] = Pdat-1::GFP::DAT-1, listed as meclofenamic acid

Row | Structure (SMILES) | enhanced wild type DA neuron survival [1] | neuroprotective effect against CAT-2-induced neurodegeneration ([2]; Pdat-1::CAT-2) [%] | neuroprotective action on dopaminergic neurons overexpressing cat-2 ([2]; Pdat-1::CAT-2, result in words) | reduction of aggregation [3] | preventative effect on protein aggregation [4] | reduction of 6-OHDA-mediated neurodegeneration [5] | Worms with no GFP (GFP::DAT-1; Pdat-1::GFP::DAT-1, water control 0%) [%] | Neurons with cell body GFP only (GFP::DAT-1; Pdat-1::GFP::DAT-1, water control 30%) [%^e] | Neurons with cell body and dendritic/axonal GFP (GFP::DAT-1; [10]) [%^d] | Neurons with cell body and dendritic/axonal GFP (GFP::DAT-1; [11]) [%] | Mean pixel intensity of cell bodies ± SEM (fluorescence intensity) (GFP::DAT-1; [10]) [A.U.] | Mean pixel intensity of cell bodies ± SEM (fluorescence intensity) (GFP::DAT-1; [11]) [A.U.] | effect on GFP::DAT-1 level (GFP::DAT-1; result in words) | enhanced DA neuron survival [6] | Specificity in worm assay [7] | reduction of protein aggregation [8] | half-life [9]
1 | Cc1ccc(Cl)c(Nc2ccccc2C(=O)O)c1Cl [Compound 206, Meclofenamic acid sodium salt] | failed to show any significant neuroprotection | 19±1.1 | demonstrated a reduction in the standardized decrease in dopaminergic neurodegeneration | reduced aggregation | seem to be beneficial | reduced the 6-OHDA-mediated neurodegeneration | 4.2 | 51.1 | 44.7 | 44.7 | 1740 ± 64 | 1740 | can down-regulate the level of DAT-1 protein directly | 25±1.2% | – | – | –
2 | CCn1cc(C(=O)O)c(=O)c2ccc(C)nc21 [Compound 187, Nalidixic Acid] | 28.9±4.9% | – | – | – | seem to be beneficial | – | – | – | – | – | – | – | – | no significant neuroprotection | wt torsinA | reduced protein aggregation | about 90 minutes
